In patent US6313094A, “β-amino-α-hydroxycarboxylic acid derivatives and HIV protease inhibitors” (priority 1990, dated 2001):
*1 amine or outer side, *2 acyl side, *3 side chain or, on linkers, in order; H or OH if unused. Where a SMILES comes first, the peptide text is derived from it. [ ]: non-standard residue; d: D form. The star is where a group is joined. X1 = O=C([C@@H](O)[C@H](Cc1ccccc1)N[*:1])[*:2]; PhAc = O=C(Cc1ccccc1)*

Molecular target: T1, chemically synthesized HIV protease (Human immunodeficiency virus type 1 group M subtype B, UniProt P12497, C555A/C583A)
T1 construct: The HIV protease was chemically synthesized; made in house; host or cells: chemical (peptide) synthesis, no expression host
Type: biochemical
Conditions: expected; compound only said to be preparable
Description: (§1) The HIV protease was chemically synthesized by replacement of two cysteine residues in the natural sequence [Science, 230, 949 (1985)] with alanine residues. The reaction mixture contained 100 mM MES buffer (pH 5.5), 40 mM of substrate (Ac-[…]NH, trifluoroacetate), inhibitors at varying concentrations dissolved in DMSO and 9.2 μg of the HIV protease in a total volume of 15 μl. Incubation was carried out at 37° C. for 60 min. The reaction was started by the addition of the enzyme and terminated by 15 μl of acetonitrile. The amount of a fragment peptide produced was measured by reversed-phase HPLC analysis using an internal standerd. The HPLC condition was as followes.
Solvent A: 0.1% trifluoroacetic acid aqueous solution
Gradient: B was increased in 1.0%/min from 100% of A,

Row | Compound | inhibitory activity against the HIV protease
1 | 5Isoquinoline-O--CH2 CO-Asn-(2S,3S)-AHPBA-Thz-NH-tBu [Example 192] | high inhibitory activity

Same assay, conditions: inhibitor 50 nM

Row | Compound | Residual Activity (%)
2 | Benzyloxycarbonyl-Asn-(2S,3S)-AHPBA-Pro-NH--C(CH3)2 --CH2 OH [Example 99] | 62.2
3 | Benzyloxycarbonyt-Asn-(2S,3S)-AHPBA-Ccp-NH-tBu [Example 187] | 99.0
4 | 1-Napthoxyacetyl-Sma-(2S,3S)-AHPBA-Pro-NH-tBu [Example 98] | 70.5
5 | 2-Naphthoxyacetyl-Msa-(2S,3S)-AHPBA-Pro-NH-tBu [Example 131] | 28.8
6 | Benzyloxycarbonyl-Asn-(2S3S)-AHPBA-Pro-NHsBu [Example 176] | 82.6
7 | 1-Naphthoxyacetyl-Msa-(2S,3S)-AHPBA-Dmp-NH-tBu [Example 183] | 4.3
8 | 1-Naphthoxyacetyl-Ile-(2S,3S)-AHPBA-Thz-NH-tBu [Example 161] | 7.0
9 | 2-Quinolinecarbonyl-Asn-(2S,3S)-AHPBA-Dtc-NH-tBu [Example 118] | 1.8
10 | Benzyloxycarbonyl-Asn-(2S,3S)-AHPBA-Cpp-NH-tBu [Example 185] | 96.0
11 | 1-Isoquinolinecarbonyl-Asn-(2S,3S)-AHPBA-Pro-NH-tBu [Example 140] | 72.8
12 | PhCH2 -O--CO-Asn-(2S,3S)-AHPBA-(L)-Tic-NH-tBu [Example 102] | 89.2
13 | 1-Naphthoxyacetyl-Msa-(2S,3S)-AHPBA-Thz-Pip-O--CH3 [Example 159] | 90.8
14 | PhCH2 -O--CO-Asn-(2S,3S)-AHPBA-(D)-Tic-NH-tBu [Example 103] | 91.4
15 | Bis(4-chlorophenyl)methyloxyacetyl-Asn-(2S,3S)-AHPBA-Pro-NH-tBu [Example 94] | 37.0
16 | 1-Naphthoxyacetyl-Mtv-(2S,3S)-AHPBA-Thz-NH-tBu [Example 154] | 35.4
17 | 1-Naphthoxyacetyl-Mta-(2S,3S)-AHPBA-Thz-NH-tBu [Example 162] | 2.9
18 | Benzyloxycarbonyl-Asn-(2S,3S)-AHPBA-Dtc-NH-tBu [Example 104] | 3.8
19 | 1-Naphtboxyacetyl-Msv-(2S,3S)-AHPBA-Thz-NH-tBu [Example 155] | 7.3
20 | 1-NaPhthoxyacetyl-Prg-(2S,3S)-AHPBA-Thz-NH-tBu [Example 180] | 26.0

Same assay, conditions: inhibitor 5 μM (final concentration)

Row | Compound | Residual Activity (%)
21 | Furancarbonyl-Asn-(2S,3S)-AHPBA-Pro-Ile-Val-NH2 [Example 65] | 9.3
22 | Benzyloxycarbonyl-Asn-(2S,3S)-AHPBA-Pro-Aib-NH2 [Example 93] | < 10
23 | Boc-Sma-(2S,3S)-AHPBA-Pro-NH-tBu [Example 97] | 92.9
24 | 1-Naphthoxyacetyl-Msa-(2S,3S)-AHPBA-Thz-NH-chex-ol [Example 158] | < 10
25 | 3-Phenylpropionyl-Smc(O)-(2S,3S)-AHPBA-Pro-Ile-Val-NH2 [Example 61] | 90.9
26 | Benzyloxycarbonyl-Asn-(2S,3S)-AHPBA-(D)-Pip-NH-tBu [Example 79] | 84.0
27 | Benzyloxycarbonyl-Asn-(2S,3S)-AHPBA-Pro-Ile-NH--CH2 --C6 H11 [Example 32] | 4.0
28 | CC(C)(C)NC(=O)[C@@H]1CCCN1C(=O)[C@@H](O)[C@H](Cc1ccccc1)NC(=O)[C@H](CC(N)=O)NC(=O)OCc1ccccc1 [Example 55, Benzyloxycarbonyl-Asn-(2S,3S)-AHPBA-Pro-NH-tBu] | 3.5
29 | NC(=O)C[C@H](NC(=O)OCc1ccccc1)C(=O)N[C@@H](Cc1ccccc1)[C@H](O)C(=O)N1CCC[C@H]1C(=O)NC1CCCCC1 [Example 84, Benzyloxycarbonyl-Asn-(2S,3S)-AHPBA-Pro-NH--C6 H11] | 9.6
30 | CC(C)NC(=O)[C@@H]1CCCN1C(=O)[C@@H](O)[C@H](Cc1ccccc1)NC(=O)[C@H](CC(N)=O)NC(=O)OCc1ccccc1 [Example 85, Benzyloxycarbonyl-Asn-(2S,3S)-AHPBA-Pro-NH--CH(CH3)2] | 10.0
31 | Benzyloxycarbonyl-Asn-(2S,3S)-AHPBA-Pro-NH--CH2 --C(CH3)3 [Example 83] | 12.4
32 | Benzyloxycarbonyl-Val-(2R,3S)-AHPBA-Phe-Val-NH--CH2 --CH(CH3)2 [Example 53] | 83.4
33 | Benzyloxycarbonyl-Asn-(2S,3S)-AHPBA-Pro-NH-cycloropyl [Example 88] | < 10
34 | CC[C@H](C)[C@H](NC(=O)[C@@H]1CCCN1C(=O)[C@@H](O)[C@H](Cc1ccccc1)NC(=O)[C@H](CO)NC(=O)Cc1ccccc1)C(=O)N[C@H](C(N)=O)C(C)C [Example 20, Phenylacetyl-Ser-(2S,3S)-AHPBA-Pro-Ile-Val-NH2] (PhAc-S[X1]PIV-NH2) | 42.8
35 | CC(C)(C)NC(=O)[C@@H]1CCCN1C(=O)[C@H](O)[C@H](Cc1ccccc1)NC(=O)[C@H](CC(N)=O)NC(=O)OCc1ccccc1 [Example 56, Benzyloxycarbonyl-Asn-(2R,3S)-AHPBA-Pro-NH-tBu] | 95.1
36 | Benzyloxycarbonyl-Asn-(2S,3S)-AHPBA-Thz-NH-tBu [Example 82] | 1.3
37 | Benzyloxycarbonyl-Asn-(2S,3S)-AHPBA-Pro-NH-tAmyl [Example 87] | 5.8
38 | PhCH2 -O--CO-Asn-(2S,3S)-AHPBA-Pro-NH--CH2 --C6 H11 [Example 49] | 51.9
39 | CC(C)(C)NC(=O)[C@@H]1CCCN1C(=O)[C@@H](O)[C@H](Cc1ccccc1)NC(=O)[C@H](CS(C)(=O)=O)NC(=O)OCc1cccc2ccccc12 [Example 90, 1-Naphthylmethyloxycarbonyl-Msa-(2S,3S)-AHPBA-Pro-NH-tBu] | 1.5
40 | Benzyloxycarbonyl-Val-(2R,3S)-AHPBA-Phe-NH--CH2 --CH(CH3)2 [Example 54] | 84.9
41 | Benzyloxycarbonyl-Asn-(2S,3S)-AHPBA-Pro-NH--CH(C2 H5)2 [Example 89] | < 10
42 | Thiophenecarbonyl-Asn-(2S,3S)-AHPBA-Pro-Ile-Val-NH2 [Example 67] | 4.9
43 | 3-Phenylpropionyl-Msa-(2S,3S)-AHPBA-Pro-Ile-Val-NH2 [Example 62] | 3.2

Same assay, conditions: inhibitor 1 mM

Row | Compound | Residual Activity (%)
44 | CC[C@H](C)[C@H](NC(=O)[C@@H]1CCCN1C(=O)[C@@H](O)[C@H](Cc1ccccc1)NC(=O)[C@H](CO)NC(=O)Cc1ccccc1)C(=O)N[C@H](C(N)=O)C(C)C [Example 20, Phenylacetyl-Ser-(2S,3S)-AHPBA-Pro-Ile-Val-NH2] (PhAc-S[X1]PIV-NH2) | 2.8

Molecular target: recombinant HIV protease (Human immunodeficiency virus type 1 group M subtype B, UniProt P12497)
Conditions: inhibitor 5 μM (final concentration); 2.0 μg enzyme
Description: as §1

Row | Compound | residual enzymic activity [%]
45 | Benzyloxycarbonyl-Asn-(2S,3S)-AHPBA-Pro-Ile-NH--CH2 --C6 H11 [Example 32] | 11.0
